The record followed here is article PMC8592230 (Food Chemistry, 2021).

Experiment [1] addresses T1, SARS-CoV-2 3CL^pro (Severe acute respiratory syndrome coronavirus 2, UniProt P0DTD1). Kind of experiment: Surface plasmon resonance binding to immobilised 3CL^pro. A general note: In SPR one partner is held on a chip, and binding of the other changes the refractive index at the surface.
In experiment [2] the target is T1, SARS-CoV-2 3CL^pro. In words: FRET dose-response 3CL^pro inhibition assay. In kind it is biochemical.
Experiment [3] has as its target T1, SARS-CoV-2 3CL^pro. Kind of experiment: Initial FRET screening for 3CL^pro inhibition at 10 µM polyphenol. In kind it is biochemical. Conditions: 0.1 µM 3CL^pro, 16 µM FRET substrate, after 10 min.

Broadly, the Kd is a measure of binding affinity in units of concentration. Low values mean a tighter complex, high ones a looser complex. A word on the IC50: it is the concentration needed to halve the response being measured. `O=c1oc2c(O)c(O)cc3c(=O)oc4c(O)c(O)cc1c4c23` [Ellagic acid]: the Kd at SARS-CoV-2 3CL^pro [1] was 311 ± 69 µM. This compound returned an IC50 on SARS-CoV-2 3CL^pro [2] of 11.8 µM.

`Oc1ccc(/C=C/c2cc(O)cc(O)c2)cc1` [Resveratrol]: the “SPR binding to immobilised 3CL^pro (in words)” value on SARS-CoV-2 3CL^pro [1] (SPR, up to 200 µM polyphenol, 25 °C) is on record as “non-specific binding”. This compound also had an IC50 against SARS-CoV-2 3CL^pro [2] of 16.9 µM.

With `COc1cc(C(=O)O)cc(OC)c1O` [Syringic acid], on SARS-CoV-2 3CL^pro [3], the “inhibition of 3CL^pro” value was “no inhibition at all”.
